Test results published in ChEMBL document CHEMBL3507680, “University of Dundee, Gates Library screen for HepG2 cell viability”.

Test: Human HepG2 cell viability assay in 384 well format
Assay type: toxicity, cell-based
Set-up: dose 125 nL, time 70.5 hour; cytotoxicity at 70.5 h: concentration not given beside the values
Conditions: HepG2 cells, read-out: Inhibition

Row | Structure (SMILES) | cytotoxicity at 70.5 h [%]
1 | O=C(O)C1CCCN1c1nc(-c2ccc(Cl)c(Cl)c2)cc(C(F)(F)F)n1 (stereo not drawn) | -3.95
2 | CCNC(=O)N1CCC2(CC1)CCn1c(-c3cccc(OC)c3)cnc12 | -6.74
3 | Cn1cnc2c1C(C(=O)N1CCCO1)N(C(=O)c1ccccc1)CC2 (stereo not drawn) | -9.14
4 | O=C(NC1CC1)[C@H]1COC[C@H]2CN(c3ncc(F)cn3)C[C@H]21 | -8.95
5 | CNC(=O)C1CCC2(CCN(c3ncc(C)cn3)CC2)CO1 (stereo not drawn) | 4.35
6 | CC(C)CN1C[C@H]2C[C@H](C(=O)NCc3cccnc3)[C@@H](C1)O2 | 2.54
7 | CC(C)OC[C@H]1CCC[C@]12CN(S(=O)(=O)c1cccs1)CCO2 | -8.77
8 | COC[C@@H]1CCC[C@]12CN(S(=O)(=O)c1cccs1)CCO2 | -4.17
9 | COCCN1C[C@@H]2OCCN(c3ccnc(N(C)C)n3)[C@@H]2C1 | 0.722
10 | COCC(=O)N1CCCn2c(CN3CCCC3=O)nnc2C1 | -8.38
11 | Cc1cnc(N2CCC3(CCCN(c4ncc(F)cn4)C3)C2)nc1 (stereo not drawn) | -5.99
12 | Cc1nc(CN2C(=O)COC3(CCN(C(N)=O)CC3)C2C)cs1 (stereo not drawn) | 3.95
13 | COCC1CN(Cc2cccc(C#N)c2)Cc2nccn2C1 (stereo not drawn) | 1.24
14 | COc1cccc(CC(=O)N2Cc3nccn3CC(CN(C)C)C2)c1 (stereo not drawn) | -0.154
15 | CCOCC(=O)N1CCCn2c(CN3CCOCC3)nnc2C1 | 2.86
16 | COCCN1C2(CCN(C(=O)c3cccs3)C2)c2ccccc2S1(=O)=O (stereo not drawn) | 2.42
17 | CCOCC(=O)N1CCCn2c(CN3CCCCC3)nnc2C1 | -1.12
18 | c1ccc(N2CCOCC3(CCCN(c4nccs4)C3)C2)nc1 (stereo not drawn) | 4.3
19 | NC(=O)N1CC[C@@H]2O[C@@H](COCC(=O)N3CCCC3)CC[C@@H]21 | 24
20 | Cc1ccc(CS(=O)(=O)N2CC[C@H]3[C@H]2CC(=O)N3C)cc1 | -10.2
21 | Cc1nnc([C@H]2C[C@@H]3CCN(Cc4cc(C)on4)C[C@H]3O2)[nH]1 | -4.17
22 | CS(=O)(=O)N1CC[C@@H]2OC(COCC(=O)N3CCCC3)CC[C@@H]21 (stereo partly drawn) | -6.9

Row | Structure (SMILES) | cytotoxicity at 70.5 h [%]
23 | O=C1CC[C@H]2[C@H](CCN2C(=O)c2ccc[nH]2)N1CCN1CCOCC1 | 19.1
24 | Cc1csc(CN2CC[C@H]3C[C@H](C)O[C@@H]3C2)n1 | -10.4
25 | Cc1csc(CN2CC[C@H]3C[C@H](c4noc(C)n4)O[C@@H]3C2)n1 | -9.71
26 | Cc1ncsc1CN1C[C@H]2OCC[C@H]2[C@H](C(=O)NCC2CC2)C1 | 2.15
27 | Cc1csc(CN2CC[C@H]3C[C@@H](c4noc(C)n4)O[C@@H]3C2)n1 | -0.439
28 | COC[C@@]12CCO[C@@H]1CCN(C(=O)Cc1ccc(C)cc1)C2 | 31.2
29 | N#Cc1ccc(OC[C@]23COC[C@H]2CN(Cc2nccs2)C3)nc1 | -4.7
30 | Cc1nocc1C(=O)N1CCCC2(CCN(c3cnn(C)c3)C2=O)C1 (stereo not drawn) | -3.71
31 | Cc1ccc(CN2C[C@@H]3COC[C@]3(COc3ccc(C#N)cn3)C2)o1 | 7.17
32 | Cc1cc(C(=O)NCC(C)C)nn1C | -5.81
33 | CCn1cc(C(=O)NCc2ccc3c(c2)OCO3)c(C)n1 | -1.15
34 | CCn1cc(CNc2ccc(F)c(F)c2)cn1 | 8.3
35 | O=C(O)Cn1nc(C2CC2)c2c(-c3ccc(F)cc3)ccnc21 | -10.6
36 | COC(=O)c1ccc(OC)c(Cn2cc(Br)cn2)c1 | -16.7
37 | Cc1nn(C)cc1-c1cc(C(F)(F)F)nn1CCC#N | -1.92
38 | Cc1ccc(Cn2nc(C)c3c(C(=O)O)c(Cl)c(C)nc32)cc1 | -12.9
39 | COC(=O)c1c(Cl)c(C2CC2)nc2onc(C)c12 | 2.98
40 | COC(=O)c1cc(C2CC2)nc2c(Cl)cnn12 | 24.9
41 | Cc1c(-c2cc(C(F)(F)F)nc(N3CCC(N)CC3)n2)cnn1C | 32.2
42 | CNC(=O)Cc1n[nH]c(-c2cncc(Br)c2)n1 | 27.1
43 | CCOC(=O)Cc1n[nH]c(-c2cncc(Br)c2)n1 | 7.76
44 | O=C(O)CCCC(=O)Nc1cnn(COc2ccc(F)cc2Cl)c1 | 7.18

Row | Structure (SMILES) | cytotoxicity at 70.5 h [%]
45 | Cc1ccnc(NC(=O)CCc2cnn(C)c2C)c1 | -4.47
46 | O=C(O)CCC(=O)Nc1nn(Cc2ccccc2Cl)cc1Cl | -5.22
47 | CCN(CC)C(=O)c1ccn(COc2ccc(F)cc2)n1 | -10.8
48 | COCCNc1cc(C)nn2cnnc12 | 11.1
49 | CC(=O)Nc1ncc(S(=O)(=O)Nc2ccccc2)s1 | -11.1
50 | CC(=O)Nc1ncc(S(=O)(=O)Nc2cccc(C)c2)s1 | -12.5
51 | COCCCNc1cc(C)nn2cnnc12 | -4.69
52 | C=C/C=c1\c(=C/C)oc2c(NCc3ccccc3)nc(CC)nc12 | 11.2
53 | O=C(CSc1nc2nncc-2c(O)n1-c1ccccc1)N1CCOCC1 | -10.6
54 | CN1CCc2nc3c(c(N)c2C1)CCCN3C | -16.1
55 | Cc1c(CN2CCOCC2)c(O)n(CCc2ccccc2)c(=O)c1C#N | -9.75
56 | CCc1ccc(NC(=O)c2n[nH]c(-n3cnnc3)n2)cc1 | -6.66
57 | COCC(=O)Nc1nn(Cc2ccc(F)cc2)cc1Cl | -5.91
58 | CCN(CC)C(=O)c1ccn(COc2ccc(F)cc2F)n1 | -7.67
59 | CCC(C)NC(=O)c1ccn(COc2ccccc2Cl)n1 (stereo not drawn) | -1.06
60 | CCN(Cc1nonc1C)C(=O)c1ccc(Br)o1 | -4.49
61 | Cc1c2nnn(CC(=O)N(C)C)c(=O)c2nn1C | -8.25
62 | Cc1nn(C)c2c(=O)n(Cc3ccc(Cl)cc3)nnc12 | -9.56
63 | Cc1nn(C)c2c(NCc3cccnc3)nc(C(C)C)nc12 | 12.4
64 | COc1ccccc1Nc1nc2c(C)nn(C)c2c(=O)n1C | 26.9
65 | COc1ccc(Nc2nc3c(C)nn(C)c3c(=O)n2C)c(C)c1 | 0.529
66 | CCn1c(NCc2ccccn2)nc2c(C)nn(C)c2c1=O | -3.41

Row | Structure (SMILES) | cytotoxicity at 70.5 h [%]
67 | CCn1c(NCc2cccnc2)nc2c(C)nn(C)c2c1=O | -4.56
68 | CCn1c(NCc2ccc(OC)cc2)nc2c(C)nn(C)c2c1=O | -6.73
69 | Cc1nn(C)c2c(=O)n(C(C)C)c(NCC3CCCO3)nc12 (stereo not drawn) | -9.24
70 | CCC(=O)N1CCC2(CCC(N3CCCC3)c3ccccc32)CC1 (stereo not drawn) | -6.38
71 | Cc1cnc(N2C[C@@H]3[C@@H](C2)OCC(=O)N3CCN(C)C)nc1 | -3.72
72 | Cc1nnc([C@]23COC[C@H]2CN(Cc2cccs2)C3)o1 | 27.6
73 | O=C(c1ccnnc1)N1C[C@@H]2C[C@@H](c3nc(C4CC4)cs3)O[C@@H]2C1 | -3.56
74 | CN(C)Cc1cn2c(n1)CN(C(=O)Cc1ccsc1)CC2 | -0.503
75 | CN(C)CC1CN(C(=O)CCc2ccccc2)Cc2nccn2C1 (stereo not drawn) | 1.84
76 | O=C(c1ccc2ccccc2n1)N1CCC2(CCN2c2ncccn2)C1 (stereo not drawn) | 2.64
77 | Cc1noc([C@@H]2C[C@H]3OCC[C@H]3N(C(C)C)C2)n1 | 6.58
78 | O=C1NC2(CCN(C(=O)N3CCOCC3)CC2)CC1c1cccnc1 (stereo not drawn) | 3.42
79 | Cc1ccc(CN2Cc3c(C(=O)N4CCCC4)nn(C)c3C2)s1 | 22.4
80 | COCCN1CC[C@@H]2OC(COCC(=O)N3CCCC3)CC[C@@H]21 (stereo partly drawn) | -3.03
81 | CS(=O)(=O)NCc1cnc2n1CCN(Cc1ccco1)CC2 | -6.2
82 | Cc1nc(CO[C@@H]2CN(Cc3cccs3)[C@@H]3COC[C@@H]32)cs1 | -9.88
83 | Cc1ccc(CN2C[C@@H](OCc3csc(C)n3)[C@H]3COC[C@H]32)s1 | -10.6
84 | Cc1ncsc1CN1C[C@H](C(=O)NCC2CC2)[C@@H]2CCO[C@@H]2C1 | -7.28
85 | CS(=O)(=O)N1CCOCC2(CCN(C(=O)c3ccncc3)CC2)C1 | -6.51
86 | COc1cc(N2C[C@H](C(=O)NCC3CC3)[C@@H]3CCO[C@@H]3C2)ncn1 | -11.6
87 | Cc1nc(CO[C@@H]2CN(Cc3ccsc3)[C@@H]3COC[C@@H]32)cs1 | -6.52
88 | CS(=O)(=O)NCc1cnc2n1CCN(Cc1cccs1)CC2 | -4.2

Row | Structure (SMILES) | cytotoxicity at 70.5 h [%]
89 | Cc1ccc(CN2CC3(CCN(C(=O)c4cscn4)C3)C2)o1 | -7.14
90 | O=C(c1cscn1)N1CCC2(CN(Cc3ccoc3)C2)C1 | -9.97
91 | CS(=O)(=O)NCc1cnc2n1CCN(Cc1ccccn1)CC2 | -1.27
92 | Cc1ccc(C(=O)N2C[C@@H]3CCCO[C@@H]3[C@H](N(C)Cc3ccco3)C2)o1 | 28.7
93 | Cc1ccc2nc(C3CCN(CC4CC4)CC3)nn2c1 | 32.6
94 | O=S(=O)(C1CC1)N1CCO[C@H]2[C@@H](Oc3cccnc3)CC[C@@H]21 | -5.72
95 | O=S(=O)(C1CC1)N1CCO[C@H]2[C@H](Oc3cccnc3)CC[C@@H]21 | -4.91
96 | c1cc(-c2ccc3c(c2)CCC32CCN(c3nncs3)CC2)ccn1 | -2.69
97 | CC(C)CNC(=O)[C@H]1C[C@@H]2CN(Cc3cccnc3)C[C@H]1O2 | -2.17
98 | c1cnc(N2CCCC3(CCN(c4ncccn4)C3)C2)nc1 (stereo not drawn) | 26.5
99 | CN(C)CC1CN(Cc2cccc(C#N)c2)Cc2nccn2C1 (stereo not drawn) | -6.48
100 | CN(C)CCOCC1CN(Cc2cccc(F)c2)Cc2nccn2C1 (stereo not drawn) | -4.81
101 | CCN(CC)CC1CN(Cc2cccc(C#N)c2)Cc2nccn2C1 (stereo not drawn) | 5.06
102 | CN(C)CCN1CC[C@@H]2O[C@@H](COCC(=O)N3CCCC3)CC[C@@H]21 | -0.268
103 | CS(=O)(=O)NCc1cnc2n1CCN(Cc1cccnc1)CC2 | -9.03
104 | Cc1nc(CO[C@@H]2CN(Cc3cccnc3)[C@@H]3COC[C@@H]32)cs1 | -10.3
105 | COCCN1C[C@@H]2[C@@H](OC)CCN(Cc3ccc(C)o3)[C@@H]2C1 | -1.05
106 | c1cncc(O[C@H]2CC[C@H]3[C@H]2OCCN3C2CCC2)c1 | -3.23
107 | CN1CC(=O)N(c2cnn(C)c2)CC12CCN(Cc1cccs1)C2 (stereo not drawn) | -1.01
108 | O=C(O)c1cnc2c(Br)cccc2c1O | -5.88
